# Results from patent US8946203B2, “Benzodioxane inhibitors of leukotriene production” (Boehringer Ingelheim International GmbH, priority 2012, dated 2015).
# Read-outs that look alike come from different tables or passages of the source.
# Columns and labels:
# [1] = target: T1, human LTA4 hydrolase (Homo sapiens, UniProt P09960); assay: LTA4H Enzyme assay (cleavage of Arg-AMC, fluorescence); type: biochemical
# T1 sequence (P09960 1-611): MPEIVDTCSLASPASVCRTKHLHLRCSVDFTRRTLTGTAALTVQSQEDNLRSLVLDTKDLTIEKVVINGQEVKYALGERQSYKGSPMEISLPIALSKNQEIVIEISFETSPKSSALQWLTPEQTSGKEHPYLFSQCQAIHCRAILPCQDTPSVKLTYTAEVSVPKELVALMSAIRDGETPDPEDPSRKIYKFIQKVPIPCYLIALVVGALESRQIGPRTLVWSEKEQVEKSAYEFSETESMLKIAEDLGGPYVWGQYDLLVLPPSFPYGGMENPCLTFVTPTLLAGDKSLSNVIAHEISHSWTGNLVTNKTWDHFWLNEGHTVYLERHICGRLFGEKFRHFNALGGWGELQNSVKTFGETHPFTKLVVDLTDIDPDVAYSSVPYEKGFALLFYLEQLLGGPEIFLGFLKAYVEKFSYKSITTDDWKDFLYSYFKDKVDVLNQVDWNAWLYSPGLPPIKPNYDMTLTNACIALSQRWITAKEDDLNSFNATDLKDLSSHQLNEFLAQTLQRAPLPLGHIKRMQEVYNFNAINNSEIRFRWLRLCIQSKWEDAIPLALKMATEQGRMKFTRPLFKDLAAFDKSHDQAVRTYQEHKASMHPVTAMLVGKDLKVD
# In short: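 Aminomethylcoumarin release measured fluorimetrically (380/460 nm) after 1 h at room temperature. Reaction: 1 nM final enzyme, 50 μM final Arg-AMC and compound in Tris-HCl pH 7.5 with 100 mM KCl and 0.5% BSA.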
# [2] = system: synthesis of LTB4 in human whole blood; assay: human whole blood (HWB) assay, LTB4 production inhibition after calcimycin stimulation; type: cell-based; conditions: heparinized human whole blood, calcimycin 20 μM, plasma LTB4 by HTRF
# Protocol: The compounds of the invention are additionally tested in a human whole blood (HWB) assay to determine their ability to inhibit the synthesis of LTB4 in a cellular system. Compounds are combined with heparinized human whole blood and incubated for 15 minutes at 37° C. Calcimycin (20 μM final, prepared in phosphate-buffered saline, pH 7.4) is then added and the mixture is incubated for another 30 minutes at 37° C. The samples are centrifuged for 5 min at low speed (1500×g) and the plasma layer is removed. Plasma LTB4 concentrations are then measured using an antibody-based homogenous time-resolved fluorescence method (CisBio, Bedford, Mass.). In general, the preferred potency range (IC50) of compounds in the HWB assay is between 10 nM to 10 μM, the more preferred potency range is 10 nM to 1 μM, and the most preferred potency range is 10 nM to 100 nM.
# [3] = LTA4H Enzyme 1 nM, Arg-AMC substrate 50 μM, room temperature 1 h, fluorescence, read-out: IC50 values of LTA4H Enzyme assay
Compound,"IC50 [1, 3]",IC50 [2],IC50 [1]
"CN[C@H](C)C(=O)NC1CCN(Cc2ccc([C@H]3COc4cccnc4O3)cc2)CC1 [Example 261, (R)-N-{1-[(S)-4-(2,3-Dihydro-[1,4]dioxino[2,3-b]pyridin-3-yl)-benzyl]-piperidin-4-yl}-2-methylamino-propionamide]",2.5 nM,260 nM,
NC(=O)N1CC2(CCN(Cc3ccc([C@H]4COc5cccnc5O4)cc3)CC2)c2ccccc21 [Example 282],,61 nM,0.17 nM
"O=C(O)[C@@H]1CCN(Cc2ccc([C@H]3COc4ccccc4O3)cc2)C1 [Example 214, (3R)-1-{4-[(2S)-2,3-dihydro-1,4-benzodioxin-2-yl]benzyl}pyrrolidine-3-carboxylic acid]",0.47 nM,169 nM,
"O=C(O)C1CCN(Cc2ccc([C@H]3COc4ccccc4O3)cc2)C1 (stereo partly drawn) [Example 61, 1-{4-[(2S)-2,3-dihydro-1,4-benzodioxin-2-yl]benzyl}pyrrolidine-3-carboxylic acid]",0.6 nM,250 nM,
"OCC1CCCN(Cc2ccc([C@H]3COc4ccccc4O3)cc2)C1 (stereo partly drawn) [Example 69, (1-{4-[(2S)-2,3-dihydro-1,4-benzodioxin-2-yl]benzyl}piperidin-3-yl)methanol]",0.6 nM,165 nM,
"CN(CCc1ccccn1)Cc1ccc([C@H]2COc3cccnc3O2)cc1 [Example 138, N-{4-[(3S)-2,3-dihydro[1,4]dioxino[2,3-b]pyridin-3-yl]benzyl}-N-methyl-2-(pyridin-2-yl)ethanamine]",0.18 nM,76 nM,
"CNC(=O)c1cn2c(n1)CN(Cc1ccc([C@H]3COc4cccnc4O3)cc1)CC2 [Example 244, 7-[(S)-4-(2,3-dihydro-[1,4]dioxino[2,3-b]pyridin-3-yl)-benzyl]-5,6,7,8-tetrahydro-imidazo[1,2-a]pyrazine-2-carboxylic acid methylamide]",0.26 nM,120 nM,
"CC(=O)N1CCCC12CCN(Cc1ccc([C@H]3COc4ccccc4O3)cc1)C2 (stereo partly drawn) [Example 118, 1-(7-{4-[(2S)-2,3-dihydro-1,4-benzodioxin-2-yl]benzyl}-1,7-diazaspiro[4.4]non-1-yl)ethanone]",0.45 nM,256 nM,
"CC(C)(O)C(=O)NCC1CCN(Cc2ccc([C@H]3COc4cccnc4O3)cc2)CC1 [Example 262, N-{1-[(S)-4-(2,3-Dihydro-[1,4]dioxino[2,3-b]pyridin-3-yl)-benzyl]-piperidin-4-ylmethyl}-2-hydroxy-2-methyl-propionamide]",0.51 nM,170 nM,
"OC1CCN(Cc2ccc([C@H]3COc4cccnc4O3)cc2)CC1 [Example 186, 1-{4-[(3S)-2,3-dihydro[1,4]dioxino[2,3-b]pyridin-3-yl]benzyl}piperidin-4-ol]",0.24 nM,36 nM,
"O=C(NC1CCN(Cc2ccc([C@H]3COc4cccnc4O3)cc2)CC1)C1CCOCC1 [Example 290, N-[1-[[4-[(3S)-2,3-dihydro-[1,4]dioxino[2,3-b]pyridin-3-yl]phenyl]methyl]-4-piperidyl]tetrahydropyran-4-carboxamide]",0.2 nM,48 nM,
"O=C(O)c1ccc(CC2CCN(Cc3ccc([C@H]4COc5cccnc5O4)cc3)CC2)cc1 [Example 234, 4-[(1-{4-[(3S)-2,3-dihydro[1,4]dioxino[2,3-b]pyridin-3-yl]benzyl}piperidin-4-yl)methyl]benzoic acid]",0.14 nM,95 nM,
"CC(=O)NC1CCN(Cc2ccc([C@H]3COc4ccccc4O3)cc2)CC1 [Example 178, N-(1-{4-[(2S)-2,3-dihydro-1,4-benzodioxin-2-yl]benzyl}piperidin-4-yl)acetamide]",0.35 nM,160 nM,
"O=C(O)C[C@@H]1CCCN(Cc2ccc([C@H]3COc4ccccc4O3)cc2)C1 [Example 183, [(3S)-1-{4-[(2S)-2,3-dihydro-1,4-benzodioxin-2-yl]benzyl}piperidin-3-yl]acetic acid]",0.48 nM,151 nM,
"O=C(O)CCCC1CCN(Cc2ccc(C3COc4ccccc4O3)cc2)CC1 (racemic) [Example 26, 4-{1-[4-(2,3-dihydro-1,4-benzodioxin-2-yl)benzyl]piperidin-4-yl}butanoic acid]",0.43 nM,308 nM,
"O=C1OCCCN1C1CCN(Cc2ccc([C@H]3COc4cccnc4O3)cc2)CC1 [Example 291, 3-{1-[(S)-4-(2,3-Dihydro-[1,4]dioxino[2,3-b]pyridin-3-yl)-benzyl]-piperidin-4-yl}-[1,3]oxazinan-2-one]",0.19 nM,56 nM,
"O=C(CN1CCCC1=O)NC1CCN(Cc2ccc([C@H]3COc4cccnc4O3)cc2)CC1 [Example 289, N-[1-[[4-[(3S)-2,3-dihydro-[1,4]dioxino[2,3-b]pyridin-3-yl]phenyl]methyl]-4-piperidyl]-2-(2-oxopyrrolidin-1-yl)acetamide]",0.4 nM,170 nM,
"NC(=O)NC1CCN(Cc2ccc(C3COc4ccccc4O3)cc2)CC1 (racemic) [Example 53, 1-{1-[4-(2,3-dihydro-1,4-benzodioxin-2-yl)benzyl]piperidin-4-yl}urea]",0.42 nM,155 nM,
"COCC(=O)NC1CCN(Cc2ccc([C@H]3COc4cccnc4O3)cc2)CC1 [Example 252, N-{1-[(S)-4-(2,3-Dihydro-[1,4]dioxino[2,3-b]pyridin-3-yl)-benzyl]-piperidin-4-yl}-2-methoxy-acetamide]",0.15 nM,42 nM,
"c1cnc2c(c1)OC[C@H](c1ccc(CN3CCCCCC3)cc1)O2 [Example 139, (3S)-3-[4-(azepan-1-ylmethyl)phenyl]-2,3-dihydro[1,4]dioxino[2,3-b]pyridine]",0.1 nM,13 nM,
"N#CCN1CCN(Cc2ccc([C@H]3COc4cccnc4O3)cc2)CC1 [Example 284, {4-[(S)-4-(2,3-Dihydro-[1,4]dioxino[2,3-b]pyridin-3-yl)-benzyl]-piperazin-1-yl}-acetonitrile]",3.9 nM,290 nM,
"OC1(c2ccccc2)CCN(Cc2ccc([C@H]3COc4cccnc4O3)cc2)CC1 [Example 269, 1-[(S)-4-(2,3-Dihydro-[1,4]dioxino[2,3-b]pyridin-3-yl)-benzyl]-4-phenyl-piperidin-4-ol]",0.2 nM,36 nM,
"NC(=O)CN1CCCC12CCN(Cc1ccc([C@H]3COc4ccccc4O3)cc1)C2 (stereo partly drawn) [Example 123, 2-(7-{4-[(2S)-2,3-dihydro-1,4-benzodioxin-2-yl]benzyl}-1,7-diazaspiro[4.4]non-1-yl)acetamide]",0.73 nM,312 nM,
"CN(Cc1ccc([C@H]2COc3cccnc3O2)cc1)C1CCCC1 [Example 142, N-{4-[(3S)-2,3-dihydro[1,4]dioxino[2,3-b]pyridin-3-yl]benzyl}-N-methylcyclopentanamine]",0.17 nM,24 nM,
"CC(c1ccc([C@H]2COc3ccccc3O2)cc1)N1CCC(C(=O)O)CC1 (stereo partly drawn) [Example 227, 1-{1-[(S)-4-(2,3-dihydro-benzo[1,4]dioxin-2-yl)-phenyl]-ethyl}-piperidine-4-carboxylic acid]",1.4 nM,307 nM,
"Nc1nc2c(s1)CN(Cc1ccc([C@H]3COc4cccnc4O3)cc1)CC2 [Example 258, 5-[(S)-4-(2,3-Dihydro-[1,4]dioxino[2,3-b]pyridin-3-yl)-benzyl]-4,5,6,7-tetrahydro-thiazolo[5,4-c]pyridin-2-ylamine]",0.37 nM,210 nM,
"CC(=O)N1C[C@@H]2CC[C@H]1CN2Cc1ccc([C@H]2COc3cccnc3O2)cc1 [Example 264, 1-{(1S,4S)-5-[(S)-4-(2,3-Dihydro-[1,4]dioxino[2,3-b]pyridin-3-yl)-benzyl]-2,5-diaza-bicyclo[2.2.2]oct-2-yl}-ethanone]",0.09 nM,17 nM,
"CN1CCC(N(C)Cc2ccc([C@H]3COc4ccccc4O3)cc2)CC1 [Example 110, N-{4-[(2S)-2,3-dihydro-1,4-benzodioxin-2-yl]benzyl}-N,1-dimethylpiperidin-4-amine]",2.15 nM,,
"CC(C)(C)NCc1ccc(C2COc3ccccc3O2)cc1 (racemic) [Example 23, N-[4-(2,3-dihydro-1,4-benzodioxin-2-yl)benzyl]-2-methylpropan-2-amine]",5.2 nM,,
"CC(=O)N1CCN(Cc2ccc(C3COc4ccccc4O3)cc2)CC1 (racemic) [Example 11, 1-{4-[4-(2,3-dihydro-1,4-benzodioxin-2-yl)benzyl]piperazin-1-yl}ethanone]",2.95 nM,,
